Earlier results, collected in patent US9215889B2, “Steviol glycoside” (MORITA KAGAKU KOGYO CO., LTD., priority 2008, dated 2015).

Details: for taste quality (in words): background comparison of ST and RA

C=C1C[C@@]23CC[C@H]4[C@@](C)(CCC[C@@]4(C)C(=O)O[C@@H]4O[C@H](CO)[C@@H](O)[C@H](O)[C@H]4O)[C@@H]2CC[C@]1(O[C@@H]1O[C@H](CO)[C@@H](O)[C@H](O)[C@H]1O[C@@H]1O[C@H](CO)[C@@H](O)[C@H](O)[C@H]1O)C3 [ST, Stevioside]
taste quality (in words): an unpleasant taste of bitterness remains in the mouth
degree of sweetness (relative to sucrose): 300 times that of sucrose

C=C1C[C@@]23CC[C@H]4[C@@](C)(CCC[C@@]4(C)C(=O)O[C@@H]4O[C@H](CO)[C@@H](O)[C@H](O)[C@H]4O)[C@@H]2CC[C@]1(O[C@@H]1O[C@H](CO)[C@@H](O)[C@H](O[C@@H]2O[C@H](CO)[C@@H](O)[C@H](O)[C@H]2O)[C@H]1O[C@@H]1O[C@H](CO)[C@@H](O)[C@H](O)[C@H]1O)C3 [RA, Rebaudioside A]
taste quality (in words): good quality of sweetness
